# Target: T1, TPO receptor (Homo sapiens, UniProt P40238)
# T1 construct: expressed in transfected cells; host or cells: murine BaF3 cells (TPO-responsive line)
# T1 sequence (P40238 26-635): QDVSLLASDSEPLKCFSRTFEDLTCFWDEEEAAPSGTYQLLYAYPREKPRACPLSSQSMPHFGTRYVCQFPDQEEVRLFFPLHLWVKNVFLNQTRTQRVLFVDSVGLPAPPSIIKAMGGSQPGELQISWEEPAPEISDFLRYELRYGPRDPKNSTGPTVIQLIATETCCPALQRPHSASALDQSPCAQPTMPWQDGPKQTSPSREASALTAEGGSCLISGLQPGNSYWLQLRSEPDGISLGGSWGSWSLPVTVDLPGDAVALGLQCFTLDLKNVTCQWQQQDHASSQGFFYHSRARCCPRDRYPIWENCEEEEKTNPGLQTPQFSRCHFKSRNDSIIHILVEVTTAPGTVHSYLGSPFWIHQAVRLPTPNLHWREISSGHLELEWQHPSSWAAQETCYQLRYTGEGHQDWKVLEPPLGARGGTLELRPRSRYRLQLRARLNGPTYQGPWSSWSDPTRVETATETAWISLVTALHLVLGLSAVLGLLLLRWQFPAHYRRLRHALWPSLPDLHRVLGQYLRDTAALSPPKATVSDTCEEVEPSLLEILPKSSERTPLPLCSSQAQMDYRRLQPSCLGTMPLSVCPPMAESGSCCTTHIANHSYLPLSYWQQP
# Assay: Luciferase assay in TPO-responsive BaF3 cell line
# Assay type: cell-based, murine
# Method: Compounds of the present invention were tested for potency as mimetics of the TPO receptor in a Luciferase assay such as described in Lamb, et al., Nucleic Acids Research 23: 3283-3289 (1995) and Seidel, et al., Proc. Natl. Acad. Sci., USA 92: 3041-3045 (1995) by substituting a TPO-responsive BaF3 cell line (Vigon et al. Proc. Natl. Acad. Sci. USA 1992, 89, 5640-5644) for the HepG2 cells utilized therein. The murine BaF3 cells express TPO receptors and closely match the pattern of STAT (signal transducers and activators of transcription) activation observed in primary murine and human bone marrow cells.
structure (smiles),measurement,setting,value
"CC1=NN(c2ccc(C(=O)O)cc2)C(=O)C1N=NC1C(=O)N(c2ccc(C)c(C)c2)N=C1C (centres unmarked) [Example 1, 4-[1-(3,4-Dimethylphenyl)-3-methyl-4-(3-methyl-5-oxo-2-pyrazolin-4-ylazo)-5-oxo-2-pyrazolin-1-yl]benzoic Acid]",EC50,TPO-responsive BaF3 cells,0.72 µM
same,"activity, % TPO",relative to TPO,56 % TPO
